Source: US8828435B2, “Buccal delivery system” (Lingual Consegna Pty Ltd, priority 2006, dated 2014)
Like-named read-outs stand apart in the source and are kept apart here.

Tests used:
[1] = Open-label clinical trial: plasma hormone pharmacokinetics after buccal LINGUET tablet, single dose and two weeks twice daily; format: in vivo, post-menopausal women; conditions: for absorption from the LINGUET tablet: achieved concentrations found in normal young menstruating women
Method: The trial was conducted with approval of an ethics committee within the hospital.
The excipients in the LINGUET tablets consisted of silica gel, magnesium stearate, acacia, stevia and polyethylene glycol with a wildberry flavour. The LINGUET tablets employed in this trial were formulated in a single batch for the study using the process according to the invention as described in example 2 above. The LINGUET tablets were provided by Richard Stenlake Compounding Pharmacist (Bondi Junction, Australia).
The study was an open-label investigation in six post-menopausal women. Before entry into the trial, subjects gave informed consent, and underwent medical and biochemical screening. Subjects were in general good health, and at least one year post-menopausal.
Subjects discontinued their prescribed HRT therapy as well as any herbal or alternative medicines not less than three days prior to the first study day. Subjects presented to the Clinical Trials Centre on the morning of each study day after an overnight fast. An indwelling cannula was inserted into a forearm vein and a baseline blood specimen collected.
On the first day, a half-LINGUET tablet was placed in the buccal cavity (between the cheek and the gum) and allowed to dissolve. Subjects were instructed not to swallow the formulation. […] Subjects rinsed their mouths with water at 45 min. Blood samples were collected via the cannula at timed intervals over 24 h. Subjects were discharged, but continued to take half a LINGUET tablet, twice daily, for the following two weeks. Subjects then re-presented to the Clinical Trials Centre where the morning dose was taken and further blood samples were collected at timed intervals over the dosage interval of 12 h.
Blood samples were schedule for collection following the single dose at the following times:
Pre-dose (0), 0.25, 0.5, 0.75, 1.0, 1.5, 2.0, 3.0, 4.0, 6.0, 8.0, 12.0, 16.0, […] and 24.0 h following the single dose, and at pre-dose (0), 0.25. 0.5, 0.75, 1.0, 2.0, 2.5, 3.0, 4.0, 6.0, 8.0, 10.0 and 12 h after the two-week dosing interval (steady-state). Actual times were recorded, and these were used for the pharmacokinetic calculations.
Plasma concentrations of hormones were determined using routine validated, radioimmunoassay techniques in the hospital laboratory (Sydpath, St Vincent's Hospital, Sydney). The laboratory is an accredited pathology provider that participates in national quality assurance programmes for hormonal analysis.
DHEA was monitored as the sulphate metabolite (DHEAS), not as the administered hormone.

[2] = background statement, cited from earlier work; for absorbed fraction of the ingested dose: oral
[3] = Hormone concentrations in saliva after buccal LINGUET tablet (radioimmunoassay); format: in vivo, post-menopausal women; conditions: elevation maintained over the following 8-12 hours
Method: Saliva was collected according to the standardized directions provided by the laboratory, Australian Reference Laboratories (Melbourne), and stored frozen (−20° C.) prior to shipping for hormonal analysis. In brief, subjects rinsed their mouths thoroughly with water and waited 5-10 min before swallowing any saliva in the mouth. Subjects then expressed saliva directly into the collection tubes.
Saliva samples were obtained for single dose estimation at the following times: pre-dose (0), and 1.0, 4.0, 8.0, 12.0, 16.0 and 24 h after dosing. For steady-state analysis, saliva was collected at pre-dose (0), and 1.0, 4.0, 8.0 and 12.0 h after LINGUET tablet administration.
Hormone concentrations in saliva were conducted by the […] (Melbourne) using validated, commercial radioimmunoassays. This laboratory is similarly an accredited pathology provider.

[4] = plasma, single and multiple dosing

## C[C@]12CC[C@H](OS(=O)(=O)O)CC1=CC[C@@H]1[C@@H]2CC[C@]2(C)C(=O)CC[C@@H]12 [DHEA-sulphate, dehydroepiandrosterone-sulphate]
[1]; plasma, after the first dose (half LINGUET tablet, buccal)
  Tmax Day 1: 6.0 h
[1]; plasma, after the first dose (half LINGUET tablet, buccal), read-out: Cmax Day 1
  Cmax: 2.2 ± 1.1 nM
[1]; plasma, after two weeks of twice daily half-tablet, six women, mean ± spread
  Trough concentration at steady-state: 2.56 ± 1.99 nmol/L
[1]; plasma, after two weeks of twice daily treatment
  Tmax Steady-state: 1.5 h
[1]; plasma, after two weeks of twice daily treatment, read-out: Cmax Steady-state
  Cmax: 4 ± 2 nM

## C[C@]12CC[C@H]3[C@@H](CCC4=CC(=O)CC[C@@]43C)[C@@H]1CC[C@@H]2O [Testosterone, testosterone]
[1]; female, human, in vivo, plasma, after the first dose (half LINGUET tablet, buccal), read-out: Cmax Day 1
  Cmax: 31.6 ± 10.9 nM
[1]; female, human, in vivo, plasma, after the first dose (half LINGUET tablet, buccal), read-out: Tmax Day 1
  Tmax: 0.6 h
[1]; female, human, in vivo, plasma, after two weeks of twice daily half-tablet, six women, mean ± spread, read-out: Trough concentration at steady-state
  concentration at 2 weeks: 0.67 ± 0.28 nM
[1]; [4]
  duration of markedly increased plasma concentrations: up to 4 hours
  return to pre-treatment values: ≤ 8 h
  time of peak concentrations (mean): 0.6 h
[1]; plasma
  absorption from the LINGUET tablet: readily absorbed

## NCCCC(O)(P(=O)(O)O)P(=O)(O)O [alendronate]
[2]
  absorbed fraction of the ingested dose: about 1%

## O=P(O)(O)C(O)(Cc1cccnc1)P(=O)(O)O [risedronate]
[2]
  absorbed fraction of the ingested dose: about 1%

## CC(=O)[C@H]1CC[C@H]2[C@@H]3CCC4=CC(=O)CC[C@]4(C)[C@H]3CC[C@]12C [Progesterone, progesterone]
[1]; female, human, in vivo, Cmax Day 1
  Cmax: 22.9 ± 6.9 nM
[1]; female, human, in vivo, Cmax Steady-state
  Cmax: 26.1 ± 7.6 nM
[1]; female, human, in vivo, Tmax Day 1
  Tmax: 1.5 h
[1]; female, human, in vivo, Tmax Steady-state
  Tmax: 1 h
[1]; in vivo
  plasma concentration at steady-state versus physiological level: sustained at concentrations usually associated with physiological and biological activity in young normal women
  time until concentrations decreased to below those generally associated with biological activity in the endometrium: within five hours
[3]
  concentrations in saliva compared with blood following use of the LINGUET tablet: elevated many times higher than in blood

## C[C@]12CC[C@H](O)CC1=CC[C@@H]1[C@@H]2CC[C@]2(C)C(=O)CC[C@@H]12 [DHEA, dehydroepiandrosterone]
[1]; plasma
  absorption from the LINGUET tablet: readily absorbed
[1]; single dose one-half LINGUET tablet (5 mg DHEA), over 5-10 hours
  change of blood concentrations of DHEAS: doubling
[2]
  oral bioavailability: over 90%

## C[C@]12CC[C@@H]3c4ccc(O)cc4CC[C@H]3[C@@H]1CC[C@@H]2O [Oestradiol, 17-β-oestradiol]
[3]
  concentrations in saliva compared with blood following use of the LINGUET tablet: elevated many times higher than in blood
